pIC50: −log10 of the molar value.
What was measured:
[1] = biological target: T1, human topoisomerase I (Homo sapiens, UniProt P11387); experiment: Test A. Topoisomerase I Cleavage Assay; assay type: biochemical; conditions: concentration relative to compound 5 (arbitrarily assumed as 1) producing the same cleavage on plasmid DNA with human topoisomerase I
T1 construct: unnamed fusion partner (recombinant fusion protein); made in house
T1 sequence (P11387 1-765): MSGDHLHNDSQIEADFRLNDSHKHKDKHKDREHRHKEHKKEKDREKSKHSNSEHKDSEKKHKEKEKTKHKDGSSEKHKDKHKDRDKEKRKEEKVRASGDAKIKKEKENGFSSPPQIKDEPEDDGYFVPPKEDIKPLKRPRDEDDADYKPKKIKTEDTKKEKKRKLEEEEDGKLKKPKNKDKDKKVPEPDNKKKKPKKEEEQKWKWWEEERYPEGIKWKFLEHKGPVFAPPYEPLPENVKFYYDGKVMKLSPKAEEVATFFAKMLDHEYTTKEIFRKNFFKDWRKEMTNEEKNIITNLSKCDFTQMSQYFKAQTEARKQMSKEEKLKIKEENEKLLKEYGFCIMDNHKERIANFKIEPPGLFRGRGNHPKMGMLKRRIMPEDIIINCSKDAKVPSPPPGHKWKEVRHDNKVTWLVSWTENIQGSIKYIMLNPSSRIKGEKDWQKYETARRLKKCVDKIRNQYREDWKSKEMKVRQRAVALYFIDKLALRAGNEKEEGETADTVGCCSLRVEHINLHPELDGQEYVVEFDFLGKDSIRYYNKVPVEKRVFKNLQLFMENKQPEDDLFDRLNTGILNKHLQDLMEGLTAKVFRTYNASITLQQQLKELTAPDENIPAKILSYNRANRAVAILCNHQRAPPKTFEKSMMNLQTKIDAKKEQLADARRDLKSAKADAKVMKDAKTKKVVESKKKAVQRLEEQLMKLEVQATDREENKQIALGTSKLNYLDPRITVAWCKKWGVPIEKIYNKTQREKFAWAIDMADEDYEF
Description: Test A. Topoisomerase I Cleavage Assay
Representative compounds of the invention were evaluated in a cleavage assay using recombinant topoisomerases I. This assay was preformed as described by B. Gatto et al. Cancer Res., 1996, 56, 2795–2800. Human topoisomerase I was isolated as a recombinant fusion protein using a T7 expression system. Plasmid YEpG was purified by the alkali lysis method followed by phenol deproteination and CsCl/ethidium isopycnic centrifugation as described by Maniatis, T.; Fritsch, E. F.; Sambrook, J. Molecular Cloning, a Laboratory Manual; Cold Spring Harbor Laboratory: Cold Spring Harbor, N.Y. 1982; pp 149–185. The end-labeling of the plasmid was accomplished by digestion with a restriction enzyme followed by end-filling with Klenow polymerase as previously described by Liu, L. F.; Rowe, T. C.; Yang, L.; Tewey, K. M.; Chen, G. L. “Cleavage of DNA by mammalian topoisomerase II,” J. Biol. Chem. 1983, 258, 15365. IC50 values were calculated after 4 days of continuous drug exposure. Topoisomerase I cleavage values are reported as REC, Relative Effective Concentration (i.e., concentrations relative to compound 5, whose value is arbitrarily assumed as 1) that is able to produce the same cleavage on the plasmid DNA in the presence of human topoisomerase I.

[2] = system: RPMI 8402 cells; experiment: Test B. MTT cytotoxicity assay (MTA), RPMI 8402; assay type: cell-based; conditions: RPMI 8402 human lymphoblast; continuous drug exposure, MTT at end of fourth day
Description: (§1) Test B. Cytotoxicity Assay
(§2) Cytotoxicity was determined using the MTT-microtiter plate tetrazolinium cytotoxicity assay (MTA) (See Chen A. Y. et al. Cancer Res. 1993, 53, 1332; Mosmann, T. J., J. Immunol. Methods 1983, 65, 55; and Carmichael, J. et al. Cancer Res. 1987, 47, 936). The human lymphoblast RPMI 8402 and its camptothecin-resistant variant cell line, CPT-K5 were provided by Dr. Toshiwo Andoh (Aichi Cancer Center Research Institute, Nagoya, Japan) (see Andoh, T.; Okada, K. “Drug resistance mechanisms of topoisomerase I drugs,” Adv. in Pharmacology 1994, 29B, 93. The cytotoxicity assay was performed using 96-well microtiter plates. Cells were grown in suspension at 37° C. in 5% CO2 and maintained by regular passage in RPMI medium supplemented with 10% heat-inactivated fetal bovine serum, L-glutamine (2 mM), penicillin (100 U/mL), and streptomycin (0.1 mg/mL). For determination of IC50, cells were exposed continuously with varying concentrations of drug and MTT assays were performed at the end of the fourth day.

[3] = system: CPT-K5 (camptothecin-resistant variant of RPMI 8402); experiment: Test B. MTT cytotoxicity assay (MTA), CPT-K5; assay type: cell-based, human; conditions: continuous drug exposure, MTT at end of fourth day
Description: as §1, §2

In the case of `c1ccc(-c2ccc3[nH]c(-c4ccc5[nH]c(-c6ccc7[nH]nnc7c6)nc5c4)nc3c2)cc1` [Compound 2, 5-Phenyl-2′-(benzotriazol-5-yl)-bibenzimidazole], the “Topo I-mediated DNA cleavage (REC, Relative Effective Concentration)” value [1] was 1, the pIC50 [2] was 6.33 and the pIC50 [3] was 6.33.
In the case of `c1ccc(-c2ccc3[nH]c(-c4ccc5[nH]c(-c6ccc7nccnc7c6)nc5c4)nc3c2)cc1` [Compound 3, 5-Phenyl-2′-(quinoxaline-6-yl)-bibenzimidazole], the “Topo I-mediated DNA cleavage (REC, Relative Effective Concentration)” value [1] was 1, the pIC50 [2] was 5.64 and the pIC50 [3] was 4.68.
In the case of `O=c1[nH]c2ccc(-c3nc4cc(-c5nc6cc(-c7ccccc7)ccc6[nH]5)ccc4[nH]3)cc2[nH]c1=O` [Compound 4, 5-Phenyl-2′-(quinoxalinedione-6-yl)bibenzimidazole], the pIC50 [2] was 4.70 and the pIC50 [3] was < 4.70.
